Assays:
[1] = test system: Cdc2 (Cdk1) tyrosine 15-phosphorylation; experiment: Cdc2 (Cdk1) tyrosine 15-phosphorylation-inhibitory effect in NCI-H1299 cells + camptothecin (ELISA); assay type: cell-based; conditions: Homo sapiens, camptothecin 200 nM for 16 hours, then test compound with nocodazole for 8 hours, read-out: Cdc2-Y15 Phosphorylation-Inhibitory Effect (H1299, + camptothecin) (EC50)
From the text: Pharmaceutical Text 2 (Method of Determining Drug Potency in Cells (Cdc2 (Cdk1) Tyrosine 15-Phosphorylation-Inhibitory Effect))
Fetal bovine serum (FBS) was obtained from Morgate; media RPMI1640 and DMEM were from Invitrogen; camptothecin was from Sigma; gemcitabine was from Nippon Eli Lilly; nocodazole and protease inhibitor cocktail were from Sigma; rabbit anti-Cdc2 antibody and mouse anti-Cdc2 antibody were from Santa Cruz Biotechnology; rabbit anti-tyrosine 15-phosphorylated Cdc2 antibody and horseradish peroxidase-labeled anti-mouse IgG antibody were from Cell Signaling Technology; sure blue reserve TMB peroxidase substrate was from Kirkegaard and Perry Laboratories. […]
In the method of using NCI-H1299 cells, the cells were suspended in RPMI1640 containing 10% FBS, and the cell suspension was applied to a 96-well Nunclondelta-processed plastic plate (bought from Nunc), in an amount of 2000 cells/100 μL/well, in which the cells were incubated overnight in 5% CO2-95% air at 37° C. […] Cdc2 was determined through ELISA as follows: A rabbit anti-Cdc2 antibody solution, which had been diluted 200-fold with 50 mM carbonate-bicarbonate buffer (pH 9.6), was applied to a 96-well maxisorpimmuno plate (bought from Nunc), in an amount of 50 μL/well, and statically kept overnight at 4° C. so as to fix the antibody on the plate. […]

[2] = test system: Human colon cancer cells WiDr; experiment: Tumor growth-inhibitory effect, WiDr tumor implanted subcutaneously in nude rats; assay type: in vivo, F344/N Jcl-mu nude rats; conditions: compound alone 0.75 mg/kg/hr, continuous intravenous injection for 8 hours
Method: Pharmaceutical Test 4 (Tumor Growth-Inhibitory Effect)
Human colon cancer cells WiDr (gotten from ATCC) were implanted into the subcutaneous area of the back of F344/N Jcl-mu nude rats. Eight days after the implantation, gemcitabine (50 mg/kg, Gemzar injection, Eli-Lilly) was intravenously administered to them; and after 24 hours, a test compound was dissolved in a solvent (5% glucose) and given to them through continuous intravenous injection for 8 hours. The tumor volume (0.5×(major diameter)×(minor diameter)^2) was determined on day 0, 3, 6, 10 and 13. Day 0 means the day on which gemcitabine was administered. The relative tumor volume is a relative value, as calculated on the basis of the tumor volume of 1 on day 0. The tumor growth percentage (% T/C) was obtained according to the following formula:
When the tumor volume change from day 0 in the group subjected to test compound administration is more than 0 (>0): % T/C=[(tumor volume change in the test compounds on day 3, 6, 10, 13)/(tumor volume change in the control on day 3, 6, 10, 13)]×100. When the tumor volume change from day 0 in the group subjected to test compound administration is less than 0 (<0): % T/C=[(tumor volume change in the test compounds on day 3, 6, 10, 13)/(tumor volume […])]×100.

EC50 [1]: 68 nM
SMILES: C=CCn1c(=O)c2cnc(Nc3ccc(N4CCN(C)CC4)cc3)nc2n1-c1cccc(C(C)(C)O)n1 [Example 53, 2-allyl-1-[6-(1-hydroxy-1-methylethyl)pyridin-2-yl]-6-{[4-(4-methylpiperazin-1-yl)phenyl]amino}-1,2-dihydro-3H-pyrazolo[3,4-d]pyrimidin-3-one]
% T/C day 3 ([2]; day 3): 86%
% T/C day 6 ([2]; day 6): 74%
% T/C day 10 ([2]; day 10): 81%
% T/C day 13 ([2]; day 13): 89%

From patent US7834019B2, “Substituted pyrazolo[3,4-d]pyrimidinone derivatives” (Banyu Pharmaceutical Co., Ltd., priority 2006, dated 2010)
